Experiments:
Test in all cases: cells
SK-MEL-28 = conditions: Homo sapiens, SK-MEL-28, 48 h; for CC50: read-out: LC50
HCT-15 = conditions: Homo sapiens, HCT-15, 48 h; for CC50: read-out: LC50
NCI-H23 = conditions: Homo sapiens, NCI-H23, 48 h
NCI-H460 = conditions: Homo sapiens, NCI-H460, 48 h; for CC50: read-out: LC50
SW-620 = conditions: Homo sapiens, SW-620, 48 h; for CC50: read-out: LC50
HOP-92 = conditions: Homo sapiens, HOP-92, 48 h; for CC50: read-out: LC50
K-562 = conditions: Homo sapiens, K562, 48 h; for GI50: K-562, 48 h; for CC50: read-out: LC50
786-0 = conditions: Homo sapiens, 786-0, 48 h; for CC50: read-out: LC50
HCC-2998 = conditions: Homo sapiens, HCC 2998, 48 h; for CC50: read-out: LC50
SR = conditions: Homo sapiens, 48 h; for CC50: read-out: LC50
SK-OV-3 = conditions: Homo sapiens, SK-OV-3, 48 h; for CC50: read-out: LC50
SK-MEL-2 = conditions: Homo sapiens, SK-MEL-2, 48 h; for CC50: read-out: LC50
NCI/ADR-RES = conditions: Homo sapiens, 48 h; for CC50: read-out: LC50
MDA-MB-468 = conditions: Homo sapiens, MDA-MB-468, 48 h; for CC50: read-out: LC50
CAKI-1 = conditions: Homo sapiens, CAKI-1, 48 h; for CC50: read-out: LC50
SNB-75 = conditions: Homo sapiens, SNB-75, 48 h; for CC50: read-out: LC50
IGROV1 = conditions: Homo sapiens, IGROV-1, 48 h; for CC50: read-out: LC50
TK-10 = conditions: Homo sapiens, TK-10, 48 h; for CC50: read-out: LC50
SK-MEL-5 = conditions: Homo sapiens, SK-MEL-5, 48 h; for CC50: read-out: LC50
SNB-19 = conditions: Homo sapiens, SNB-19, 48 h; for CC50: read-out: LC50
A549/ATCC = conditions: Homo sapiens, A549, 48 h; for CC50: read-out: LC50
KM12 = conditions: Homo sapiens, KM12, 48 h; for CC50: read-out: LC50
NCI-H522 = conditions: Homo sapiens, NCI-H522, 48 h; for CC50: read-out: LC50
RXF 393 = conditions: Homo sapiens, RXF 393, 48 h

## COc1cc(/C=C/C(=O)c2ccccc2)ccc1Oc1nc(Nc2ccc(F)cc2)nc(N(C)C)n1 [21a]
SK-MEL-28
  GI50: 12.2 µM
  CC50: 84.6 µM
HCT-15
  GI50: 3.31 µM
  CC50: 36.2 µM
NCI-H23
  GI50: 12.6 µM
NCI-H23; read-out: LC50
  CC50: > 100 µM
NCI-H460
  GI50: 9.14 µM
  CC50: 93.2 µM
SW-620
  GI50: 1.81 µM
  CC50: 8.7 µM
HOP-92
  GI50: 2.08 µM
  CC50: > 100 µM
K-562
  GI50: 3.57 µM
  CC50: > 100 µM
786-0
  GI50: 20.5 µM
  CC50: > 100 µM
HCC-2998
  GI50: 12.9 µM
  CC50: > 100 µM
SR
  GI50: 2.9 µM
  CC50: > 100 µM
SK-OV-3
  GI50: 48.6 µM
  CC50: > 100 µM
SK-MEL-2
  GI50: 4.68 µM
  CC50: 63.1 µM
NCI/ADR-RES
  GI50: 7.04 µM
  CC50: 58.5 µM
MDA-MB-468
  GI50: 3.21 µM
  CC50: > 100 µM
CAKI-1
  GI50: 5.72 µM
  CC50: > 100 µM
SNB-75
  GI50: 4.7 µM
  CC50: > 100 µM
IGROV1
  GI50: 18.7 µM
  CC50: > 100 µM
TK-10
  GI50: 18 µM
  CC50: > 100 µM
SK-MEL-5
  GI50: 6.21 µM
  CC50: > 100 µM
SNB-19
  GI50: 10.2 µM
  CC50: 74.9 µM
A549/ATCC
  GI50: 11.7 µM
  CC50: > 100 µM
KM12
  GI50: 14.9 µM
  CC50: > 100 µM
NCI-H522
  GI50: 5.15 µM
  CC50: > 100 µM

## Nc1nc(N)c2c(n1)NC(c1ccccc1)CC(c1ccc(Nc3nc(NCCO)nc(Nc4ccc(Cl)cc4)n3)cc1)=N2 (stereo not drawn) [33a]
SK-MEL-28
  GI50: 1.73 µM
  CC50: 5.64 µM
HCT-15
  GI50: 1.38 µM
  CC50: 5.87 µM
RXF 393
  GI50: 1.63 µM
NCI-H460
  GI50: 1.85 µM
  CC50: 6.51 µM
SW-620
  GI50: 1.87 µM
  CC50: 6.48 µM
HOP-92
  GI50: 1.42 µM
  CC50: 6.74 µM
K-562
  GI50: 1.01 µM
  CC50: > 100 µM
786-0
  GI50: 1.63 µM
  CC50: 5.8 µM
HCC-2998
  GI50: 1.68 µM
  CC50: 5.72 µM
SR
  GI50: 0.55 µM
SK-OV-3
  GI50: 17.7 µM
  CC50: 57.9 µM
SK-MEL-2
  GI50: 1.38 µM
  CC50: 5.6 µM
NCI/ADR-RES
  GI50: 4.33 µM
  CC50: > 100 µM
MDA-MB-468
  GI50: 1.51 µM
  CC50: 5.93 µM
CAKI-1
  GI50: 2.3 µM
  CC50: 24.8 µM
SNB-75
  GI50: 1.56 µM
  CC50: 6.29 µM
IGROV1
  GI50: 1.56 µM
  CC50: 6.29 µM
TK-10
  GI50: 2.09 µM
  CC50: 7.16 µM
SK-MEL-5
  GI50: 1.42 µM
  CC50: 5.21 µM
SNB-19
  GI50: 1.58 µM
  CC50: 5.64 µM
A549/ATCC
  GI50: 2.84 µM
  CC50: > 100 µM
KM12
  GI50: 1.9 µM
  CC50: 6.61 µM
NCI-H522
  GI50: 1.79 µM
  CC50: 6.77 µM

## Cc1ccc(C2CC(c3ccc(Nc4nc(NCCO)nc(Nc5ccc(Cl)cc5)n4)cc3)=Nc3c(N)nc(N)nc3N2)cc1 (stereo not drawn) [33b]
SK-MEL-28
  GI50: 1.77 µM
  CC50: 5.65 µM
HCT-15
  GI50: 1.48 µM
  CC50: 5.87 µM
RXF 393
  GI50: 1.45 µM
NCI-H460
  GI50: 1.8 µM
  CC50: 6.41 µM
SW-620
  GI50: 1.79 µM
  CC50: 6.12 µM
HOP-92
  GI50: 1.3 µM
  CC50: 6.3 µM
K-562
  GI50: 1.34 µM
  CC50: 24.9 µM
786-0
  GI50: 1.64 µM
  CC50: 5.7 µM
HCC-2998
  GI50: 1.55 µM
  CC50: 5.56 µM
SR
  GI50: 1.68 µM
  CC50: > 100 µM
SK-OV-3
  GI50: 2.69 µM
  CC50: 25.6 µM
SK-MEL-2
  GI50: 1.81 µM
  CC50: 6.4 µM
NCI/ADR-RES
  GI50: 1.73 µM
  CC50: 6.97 µM
MDA-MB-468
  GI50: 1.65 µM
  CC50: 6.09 µM
CAKI-1
  GI50: 1.64 µM
  CC50: 5.73 µM
SNB-75
  GI50: 1.62 µM
  CC50: 6.73 µM
IGROV1
  GI50: 1.65 µM
  CC50: 5.98 µM
TK-10
  GI50: 1.9 µM
  CC50: 6.02 µM
SK-MEL-5
  GI50: 1.56 µM
  CC50: 5.43 µM
SNB-19
  GI50: 1.57 µM
  CC50: 5.75 µM
A549/ATCC
  GI50: 1.74 µM
  CC50: 6.8 µM
KM12
  GI50: 1.97 µM
  CC50: 7.54 µM
NCI-H522
  GI50: 1.72 µM
  CC50: 7.03 µM

— article PMC11012124, “Synthesis of Novel Triazine-Based Chalcones and 8,9-dihydro-7H-pyrimido[4,5-b][1,4]diazepines as Potential Leads in the Search of Anticancer, Antibacterial and Antifungal Agents” (International Journal of Molecular Sciences, 2024)
